The values below come from patent publication US9676732B2, “Ethynyl derivatives” (Hoffmann-La Roche Inc., priority 2013, dated 2017).

Experiment [1] relates to mice treated with 1-Methyl-4-Phenyl-1,2,3,6-Tetrahydropyridine (MPTP). To be noted: cited from earlier work.
The next experiment relates to EPM in mice. To be noted: preclinical model of anxiety; cited from earlier work.
For experiment [2], the system named is marble burying test in mice. To be noted: preclinical model of anxiety; cited from earlier work.
Another experiment deals with EPM in rats. To be noted: cited from earlier work.
For a further experiment, the target named is human mGlu4 receptor (Homo sapiens (Human), UniProt Q14833). As to the kind of experiment: Ca2+ mobilization in vitro assay on recombinant human mGlu4 expressed in HEK293 cells (mGlu4 PAM). The format is cell-based. To be noted: for EC50: HEK293 cells stably expressing human mGlu4, L-AP4 added at EC20, read-out: EC50 (nM) mGlu4PAM; for Eff. (%): maximal response in % of the maximal stimulatory effect obtained with saturating concentrations of L-AP4. On the procedure: Determination of EC50 Values Using a Ca2+ Mobilization In Vitro Assay on Recombinant Human mGlu4 Expressed in HEK293 Cells:
A monoclonal HEK-293 cell line stably transfected with a cDNA encoding for the human mGlu4 receptor was generated; for the work with mGlu4 Positive Allosteric Modulators (PAMs), a cell line with low receptor expression levels and low constitutive receptor activity was selected to allow the differentiation of agonistic versus PAM activity. Cells were cultured according to standard protocols (Freshney, 2000) in Dulbecco's Modified Eagle Medium with high glucose supplemented with 1 mM glutamine, 10% (vol/vol) heat-inactivated bovine calf serum, Penicillin/Streptomycin, 50 μg/ml hygromycin and 15 μg/ml blasticidin (all cell culture reagents and antibiotics from Invitrogen, Basel, Switzerland).
About 24 hrs before an experiment, 5×10^4 cells/well were seeded in poly-D-lysine coated, black/clear-bottomed 96-well plates. The cells were loaded with 2.5 μM Fluo-4AM in loading buffer (1×HBSS, 20 mM HEPES) for 1 hr at 37° C. and washed five times with loading buffer. The cells were transferred into a Functional Drug Screening System 7000 (Hamamatsu, Paris, France), and 11 half logarithmic serial dilutions of test compound at 37° C. were added and the cells were incubated for 10-30 min. with on-line recording of fluorescence. Following this pre-incubation step, the agonist (2S)-2-amino-4-phosphonobutanoic acid (L-AP4) was added to the cells at a concentration corresponding to EC20 with on-line recording of fluorescence; in order to account for day-to-day variations in the responsiveness of cells, the EC20 of L-AP4 was determined immediately ahead of each experiment by recording of a full dose-response curve of L-AP4.
Responses were measured as peak increase in fluorescence minus basal (i.e. fluorescence without addition of L-AP4), normalized to the maximal stimulatory effect obtained with saturating concentrations of L-AP4. Graphs were plotted with the % maximal stimulatory using XLfit, a curve fitting program that iteratively plots the data using Levenburg Marquardt algorithm. The single site competition analysis equation used was y=A+((B−A)/(1+((x/C)D))), where y is the % maximal stimulatory effect, A is the minimum y, B is the maximum y, C is the EC50, x is the log 10 of the concentration of the competing compound and D is the slope of the curve (the Hill Coefficient). From these curves the EC50 (drug concentration at which 50% of the maximal receptor activation was achieved), the Hill coefficient as well as the maximal response in % of the maximal stimulatory effect obtained with saturating concentrations of L-AP4 were calculated (see FIG. 1).
A depression of the signal observed after addition of the EC20 concentration of L-AP4 was indicative of an inhibitory activity of the test compound. • FIG. 1: Illustration of the experimental outline for mGlu4 PAM Ca2+ mobilization screening assay and the determination of EC50 and % Emax values.
(A change in cytosolic calcium serves as a functional read-out for many receptors and channels.)

Experiment [3] relates to 6-OHDA rodent model of PD. To be noted: cited from earlier work.

human mGlu4 receptor, sequence (Q14833 33-912): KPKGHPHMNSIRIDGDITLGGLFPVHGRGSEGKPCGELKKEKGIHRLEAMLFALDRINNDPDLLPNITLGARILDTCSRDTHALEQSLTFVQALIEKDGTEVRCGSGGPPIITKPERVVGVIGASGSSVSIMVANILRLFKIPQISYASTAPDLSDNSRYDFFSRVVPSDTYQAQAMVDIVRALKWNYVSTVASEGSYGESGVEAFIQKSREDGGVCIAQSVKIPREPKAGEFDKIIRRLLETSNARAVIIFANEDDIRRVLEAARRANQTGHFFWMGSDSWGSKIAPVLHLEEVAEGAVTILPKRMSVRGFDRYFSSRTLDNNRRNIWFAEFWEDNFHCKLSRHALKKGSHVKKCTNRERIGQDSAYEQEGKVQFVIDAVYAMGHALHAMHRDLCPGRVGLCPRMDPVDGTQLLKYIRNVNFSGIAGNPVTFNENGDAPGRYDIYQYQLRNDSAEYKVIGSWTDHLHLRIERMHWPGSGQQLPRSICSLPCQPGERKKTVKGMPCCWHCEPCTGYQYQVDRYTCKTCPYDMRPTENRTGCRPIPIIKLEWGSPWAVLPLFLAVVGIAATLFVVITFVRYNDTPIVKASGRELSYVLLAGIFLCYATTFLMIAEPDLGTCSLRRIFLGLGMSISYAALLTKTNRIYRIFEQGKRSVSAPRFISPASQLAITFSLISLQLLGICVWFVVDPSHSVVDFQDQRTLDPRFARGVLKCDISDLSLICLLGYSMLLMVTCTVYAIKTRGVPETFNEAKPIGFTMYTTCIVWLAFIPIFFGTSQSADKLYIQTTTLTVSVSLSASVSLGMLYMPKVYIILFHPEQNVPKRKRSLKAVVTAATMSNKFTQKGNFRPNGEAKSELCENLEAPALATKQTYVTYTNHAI

With `O=C(Nc1ccccc1)C12CC1/C(=N\O)c1ccccc1O2` (single isomer, unassigned; (-)) [(−)-PHCCC], in experiment [1], the nigrostriatal degeneration entry was “reduced nigrostriatal degeneration”.
Consider `Cc1ccnc(Nc2nc(-c3cn[nH]c3)c(C)s2)n1` [ADX88178], for which the “activity in EPM” value in the experiment with EPM in mice is recorded as “active”; in the experiment with EPM in rats (rats, preclinical model of anxiety) it was “active”. Besides, the “activity in marble burying test” value in experiment [2] is listed as “active”. Besides, in the experiment with EPM in rats (rat, after oral dosing), the “profile in rat EPM test” value is recorded as “anxiolytic-like profile”.
Regarding `CC(C)c1cccc2c(=O)n(-c3ccc(C#Cc4ccccc4)cc3Cl)c(=O)n(C)c12` [Example 54, 3-[2-Chloro-4-(2-phenylethynyl)phenyl]-8-isopropyl-1-methyl-quinazoline-2,4-dione], at human mGlu4 receptor, the EC50 – broadly, the concentration that produces a half-maximal response – was 179 nM and the “Eff. (%)” value is 97%.
For the compound `CC(C)n1c(=O)n(-c2ccc(C#Cc3ccccc3)cn2)c(=O)c2ccccc21` [Example 55, 1-Isopropyl-3-[5-(2-phenylethynyl)-2-pyridyl]quinazoline-2,4-dione], on human mGlu4 receptor, the EC50 worked out at 766 nM and the “Eff. (%)” value is 123%.
`CC(C)n1c(=O)n(-c2ncc(C#Cc3ccccc3)cc2F)c(=O)c2nn(C)cc21` [Example 56, 6-[3-Fluoro-5-(2-phenylethynyl)-2-pyridyl]-4-isopropyl-2-methyl-pyrazolo[4,3-d]pyrimidine-5,7-dione]: at human mGlu4 receptor, the EC50 turned out to be 121 nM and the “Eff. (%)” value stood at 120%.
Regarding `CC(C)n1c(=O)n(-c2c(F)cc(C#Cc3cccnc3)cc2F)c(=O)c2nn(C)cc21` [Example 57, 6-[2,6-Difluoro-4-[2-(3-pyridyl)ethynyl]phenyl]-4-isopropyl-2-methyl-pyrazolo[4,3-d]pyrimidine-5,7-dione], on human mGlu4 receptor, the EC50 amounted to 65 nM and the “Eff. (%)” value stood at 134%.
Take `CC(C)n1c(=O)n(-c2c(F)cc(C#Cc3cccnc3)cc2Cl)c(=O)c2nn(C)cc21` [Example 58, 6-[2-Chloro-6-fluoro-4-[2-(3-pyridyl)ethynyl]phenyl]-4-isopropyl-2-methyl-pyrazolo[4,3-d]pyrimidine-5,7-dione]: at human mGlu4 receptor, the EC50 was 37 nM and the “Eff. (%)” value was determined as 120%.
Regarding `CC(C)n1c(=O)n(-c2ncc(C#Cc3cccnc3)cc2Cl)c(=O)c2nn(C)cc21` [Example 59, 6-[3-Chloro-5-[2-(3-pyridyl)ethynyl]-2-pyridyl]-4-isopropyl-2-methyl-pyrazolo[4,3-d]pyrimidine-5,7-dione], at human mGlu4 receptor, the EC50 worked out at 169 nM and the “Eff. (%)” value is on record as 146%.
Regarding `CC(C)n1c(=O)n(-c2ncc(C#Cc3ccccc3)cc2Cl)c(=O)c2nn(C)cc21` [Example 60, 6-[3-Chloro-5-(2-phenylethynyl)-2-pyridyl]-4-isopropyl-2-methyl-pyrazolo[4,3-d]pyrimidine-5,7-dione], at human mGlu4 receptor, the EC50 came out at 189 nM and the “Eff. (%)” value is 150%.
Turning to `Cn1c(=O)n(-c2c(F)cc(C#Cc3ccccc3)cc2F)c(=O)c2nccc(Cl)c21` [Example 61, 8-Chloro-3-[2,6-difluoro-4-(2-phenylethynyl)phenyl]-1-methyl-pyrido[3,2-d]pyrimidine-2,4-dione], at human mGlu4 receptor, the EC50 is 91 nM and the “Eff. (%)” value came out at 129%.
Take `Cn1cc2c(=O)n(-c3c(F)cc(C#Cc4ccccc4)cc3F)c(=O)n(C)c2n1` [Example 62, 5-[2,6-Difluoro-4-(2-phenylethynyl)phenyl]-2,7-dimethyl-pyrazolo[3,4-d]pyrimidine-4,6-dione]: at human mGlu4 receptor, the EC50 came to 137 nM and the “Eff. (%)” value was 145%.
Take `Cn1ncc2c(=O)n(-c3c(F)cc(C#Cc4ccccc4)cc3F)c(=O)n(C)c21` [Example 63, 5-[2,6-Difluoro-4-(2-phenylethynyl)phenyl]-1,7-dimethyl-pyrazolo[3,4-d]pyrimidine-4,6-dione]: at human mGlu4 receptor, the EC50 is 26 nM and the “Eff. (%)” value is given as 146%.
Take `CC(C)n1c(=O)n(-c2c(F)cc(C#Cc3ccccc3)cc2F)c(=O)c2c[nH]nc21` [Example 64, 5-[2,6-Difluoro-4-(2-phenylethynyl)phenyl]-7-isopropyl-2H-pyrazolo[3,4-d]pyrimidine-4,6-dione]: on human mGlu4 receptor, the EC50 is 121 nM and the “Eff. (%)” value is on record as 120%.
As to `COc1cccc2c(=O)n(-c3ccc(C#Cc4ccccc4)cc3Cl)c(=O)n(C)c12` [Example 65, 3-[2-Chloro-4-(2-phenylethynyl)phenyl]-8-methoxy-1-methyl-quinazoline-2,4-dione], at human mGlu4 receptor, the EC50 turned out to be 32 nM and the “Eff. (%)” value is on record as 97%.
In the case of `O=c1c2ccccc2n(C2COC2)c(=O)n1-c1c(F)cc(C#Cc2ccccc2)cc1F` [Example 66, 3-[2,6-Difluoro-4-(2-phenylethynyl)phenyl]-1-(oxetan-3-yl)quinazoline-2,4-dione], at human mGlu4 receptor, the EC50 is 75 nM and the “Eff. (%)” value worked out at 184%.
`Cn1c(=O)n(-c2ccc(C#Cc3ccccc3)cc2Cl)c(=O)c2ncsc21` [Example 67, 6-[2-Chloro-4-(2-phenylethynyl)phenyl]-4-methyl-thiazolo[5,4-d]pyrimidine-5,7-dione]: at human mGlu4 receptor, the EC50 came out at 246 nM and the “Eff. (%)” value was 188%.
With `CC(C)n1c(=O)n(-c2c(F)cc(C#Cc3ccccc3)cc2F)c(=O)c2nccnc21` [Example 68, 3-[2,6-Difluoro-4-(2-phenylethynyl)phenyl]-1-isopropyl-pteridine-2,4-dione], on human mGlu4 receptor, the EC50 was 48 nM and the “Eff. (%)” value turned out to be 225%.
For `Cn1cnc2c1c(=O)n(-c1c(F)cc(C#Cc3ccccc3)cc1F)c(=O)n2C` [Example 69, 1-[2,6-Difluoro-4-(2-phenylethynyl)phenyl]-3,7-dimethyl-purine-2,6-dione] the same measures were 50 nM and 113%.
In the same order, the values of `COc1cccc2c(=O)n(-c3c(F)cc(C#Cc4ccccc4)cc3F)c(=O)n(C)c12` [Example 70, 3-[2,6-Difluoro-4-(2-phenylethynyl)phenyl]-8-methoxy-1-methyl-quinazoline-2,4-dione] are 38 nM and 152%.
In the case of `O=c1c2ccccc2n(C2COC2)c(=O)n1-c1c(F)cc(C#Cc2cccnc2)cc1Cl` [Example 71, 3-[2-Chloro-6-fluoro-4-[2-(3-pyridyl)ethynyl]phenyl]-1-(oxetan-3-yl)quinazoline-2,4-dione], on human mGlu4 receptor, the EC50 is 86 nM and the “Eff. (%)” value is recorded as 103%.
For `CC(C)n1c(=O)n(-c2c(F)cc(C#Cc3ccccc3)cc2C(F)(F)F)c(=O)c2ccccc21` [Example 72, 3-[2-Fluoro-4-(2-phenylethynyl)-6-(trifluoromethyl)phenyl]-1-isopropyl-quinazoline-2,4-dione] the same measures were 63 nM and 134%.
In the case of `Cc1cccc2c(=O)n(-c3c(F)cc(C#Cc4cccnc4)cc3F)c(=O)n(C)c12` [Example 73, 3-[2,6-Difluoro-4-[2-(3-pyridyl)ethynyl]phenyl]-1,8-dimethyl-quinazoline-2,4-dione], at human mGlu4 receptor, the EC50 amounted to 154 nM and the “Eff. (%)” value is 197%.
In the same order, the values of `Cn1c(=O)n(-c2c(F)cc(C#Cc3ccccc3)cc2F)c(=O)c2cccc(OCC(F)F)c21` [Example 74, 8-(2,2-Difluoroethoxy)-3-[2,6-difluoro-4-(2-phenylethynyl)phenyl]-1-methyl-quinazoline-2,4-dione] are 60 nM and 122%.
Consider `N[C@@H](CCP(=O)(O)O)C(=O)O` [L-AP4, (2S)-2-amino-4-phosphonobutanoic acid], for which, in experiment [3], the neuroprotection entry was “neuroprotective effects”.
